From ChEMBL document CHEMBL4138148, “Discovery of novel pyrrolo-pyridine/pyrimidine derivatives bearing pyridazinone moiety as c-Met kinase inhibitors” (Eur J Med Chem, 2017)

Tests used:
Format in all cases: functional
HepG2 [1] = assay: Induction of apoptosis in human HepG2 cells assessed as late apoptotic cells at 2.8 uM by Annexin V-FITC/propidium iodide staining based flow cytometry (reference value: 6.07%)
HepG2 [2] = assay: Induction of apoptosis in human HepG2 cells assessed as early apoptotic cells at 2.8 uM by Annexin V-FITC/propidium iodide staining based flow cytometry (reference value: 6.11%)
HepG2 [3] = assay: Induction of apoptosis in human HepG2 cells assessed as necrotic cells at 2.8 uM by Annexin V-FITC/propidium iodide staining based flow cytometry (reference value: 0.28%)
HepG2 [4] = assay: Induction of apoptosis in human HepG2 cells assessed as viable cells at 2.8 uM by Annexin V-FITC/propidium iodide staining based flow cytometry (reference value: 87.54%); conditions: read-out: Activity

Which results are given for `COc1cc2c(Oc3ccc(NC(=O)C4(C(=O)Nc5ccc(F)cc5)CC4)cc3F)ccnc2cc1OCCCN1CCOCC1` [FORETINIB]?
Activity (HepG2 [1]): 10.3%; Activity (HepG2 [2]): 16.09%; Activity (HepG2 [3]): 1.25%; viability at 2.8 µM (HepG2 [4]): 72.4%
